Test results: the NIST ThermoML archive (doi:10.1016/j.jct.2012.06.012)
± gives the expanded uncertainty stated by the source.

Test: xn = mol fraction of the nth substance listed
Conditions: Liquid, Vibrating tube method

CCCCCCCCCC [decane] + CCO
Conditions | mass density [kg/m3]
313.07 K, 1000 kPa, x2 = 0.9014 | 753.75 ± 0.19
313.07 K, 2000 kPa, x2 = 0.9014 | 754.71 ± 0.2
313.07 K, 3000 kPa, x2 = 0.9014 | 755.67 ± 0.21
313.07 K, 4000 kPa, x2 = 0.9014 | 756.61 ± 0.22
313.07 K, 5000 kPa, x2 = 0.9014 | 757.53 ± 0.23
313.07 K, 6000 kPa, x2 = 0.9014 | 758.44 ± 0.25
313.07 K, 7000 kPa, x2 = 0.9014 | 759.33 ± 0.26
313.07 K, 8000 kPa, x2 = 0.9014 | 760.24 ± 0.27
313.07 K, 9000 kPa, x2 = 0.9014 | 761.14 ± 0.28
313.07 K, 10000 kPa, x2 = 0.9014 | 762.04 ± 0.29
313.07 K, 11000 kPa, x2 = 0.9014 | 762.94 ± 0.3
313.07 K, 12000 kPa, x2 = 0.9014 | 763.84 ± 0.31
313.07 K, 13000 kPa, x2 = 0.9014 | 764.72 ± 0.32
313.07 K, 14000 kPa, x2 = 0.9014 | 765.58 ± 0.33
313.07 K, 15000 kPa, x2 = 0.9014 | 766.45 ± 0.34
313.07 K, 16000 kPa, x2 = 0.9014 | 767.29 ± 0.35
313.07 K, 17000 kPa, x2 = 0.9014 | 768.13 ± 0.36
313.07 K, 18000 kPa, x2 = 0.9014 | 768.94 ± 0.37
313.07 K, 19000 kPa, x2 = 0.9014 | 769.74 ± 0.38
313.07 K, 20000 kPa, x2 = 0.9014 | 770.52 ± 0.39
313.08 K, 1000 kPa, x2 = 0.1011 | 715.15 ± 0.21
313.08 K, 1000 kPa, x2 = 0.4963 | 724.28 ± 0.21
313.08 K, 1000 kPa, x2 = 0.7526 | 738.33 ± 0.21
313.08 K, 2000 kPa, x2 = 0.1011 | 716.05 ± 0.23
313.08 K, 2000 kPa, x2 = 0.4963 | 725.2 ± 0.22
313.08 K, 2000 kPa, x2 = 0.7526 | 739.26 ± 0.21
313.08 K, 3000 kPa, x2 = 0.1011 | 716.93 ± 0.24
313.08 K, 3000 kPa, x2 = 0.4963 | 726.11 ± 0.24
313.08 K, 3000 kPa, x2 = 0.7526 | 740.19 ± 0.23
313.08 K, 4000 kPa, x2 = 0.1011 | 717.8 ± 0.25
313.08 K, 4000 kPa, x2 = 0.4963 | 727 ± 0.25
313.08 K, 4000 kPa, x2 = 0.7526 | 741.1 ± 0.24
313.08 K, 5000 kPa, x2 = 0.1011 | 718.66 ± 0.27
313.08 K, 5000 kPa, x2 = 0.4963 | 727.87 ± 0.26
313.08 K, 5000 kPa, x2 = 0.7526 | 741.99 ± 0.25
313.08 K, 6000 kPa, x2 = 0.1011 | 719.51 ± 0.28
313.08 K, 6000 kPa, x2 = 0.4963 | 728.73 ± 0.27
313.08 K, 6000 kPa, x2 = 0.7526 | 742.87 ± 0.26
313.08 K, 7000 kPa, x2 = 0.1011 | 720.34 ± 0.29
313.08 K, 7000 kPa, x2 = 0.4963 | 729.58 ± 0.29
313.08 K, 7000 kPa, x2 = 0.7526 | 743.75 ± 0.27
313.08 K, 8000 kPa, x2 = 0.1011 | 721.16 ± 0.31
313.08 K, 8000 kPa, x2 = 0.4963 | 730.44 ± 0.3
313.08 K, 8000 kPa, x2 = 0.7526 | 744.64 ± 0.28
313.08 K, 9000 kPa, x2 = 0.1011 | 721.98 ± 0.32
313.08 K, 9000 kPa, x2 = 0.4963 | 731.3 ± 0.31
313.08 K, 9000 kPa, x2 = 0.7526 | 745.53 ± 0.3
313.08 K, 10000 kPa, x2 = 0.1011 | 722.8 ± 0.33
313.08 K, 10000 kPa, x2 = 0.4963 | 732.16 ± 0.32
313.08 K, 10000 kPa, x2 = 0.7526 | 746.41 ± 0.31
313.08 K, 11000 kPa, x2 = 0.1011 | 723.63 ± 0.34
313.08 K, 11000 kPa, x2 = 0.4963 | 733 ± 0.33
313.08 K, 11000 kPa, x2 = 0.7526 | 747.29 ± 0.32
313.08 K, 12000 kPa, x2 = 0.1011 | 724.45 ± 0.36
313.08 K, 12000 kPa, x2 = 0.4963 | 733.86 ± 0.35
313.08 K, 12000 kPa, x2 = 0.7526 | 748.17 ± 0.33
313.08 K, 13000 kPa, x2 = 0.1011 | 725.26 ± 0.37
313.08 K, 13000 kPa, x2 = 0.4963 | 734.7 ± 0.36
313.08 K, 13000 kPa, x2 = 0.7526 | 749.03 ± 0.34
313.08 K, 14000 kPa, x2 = 0.1011 | 726.06 ± 0.38
313.08 K, 14000 kPa, x2 = 0.4963 | 735.54 ± 0.37
313.08 K, 14000 kPa, x2 = 0.7526 | 749.89 ± 0.35
313.08 K, 15000 kPa, x2 = 0.1011 | 726.85 ± 0.4
313.08 K, 15000 kPa, x2 = 0.4963 | 736.35 ± 0.38
313.08 K, 15000 kPa, x2 = 0.7526 | 750.73 ± 0.36
313.08 K, 16000 kPa, x2 = 0.1011 | 727.63 ± 0.41
313.08 K, 16000 kPa, x2 = 0.4963 | 737.16 ± 0.39
313.08 K, 16000 kPa, x2 = 0.7526 | 751.56 ± 0.38
313.08 K, 17000 kPa, x2 = 0.1011 | 728.39 ± 0.42
313.08 K, 17000 kPa, x2 = 0.4963 | 737.95 ± 0.41
313.08 K, 17000 kPa, x2 = 0.7526 | 752.38 ± 0.39
313.08 K, 18000 kPa, x2 = 0.1011 | 729.13 ± 0.43
313.08 K, 18000 kPa, x2 = 0.4963 | 738.72 ± 0.42
313.08 K, 18000 kPa, x2 = 0.7526 | 753.17 ± 0.4
313.08 K, 19000 kPa, x2 = 0.1011 | 729.85 ± 0.45
313.08 K, 19000 kPa, x2 = 0.4963 | 739.47 ± 0.43
313.08 K, 19000 kPa, x2 = 0.7526 | 753.95 ± 0.41
313.08 K, 20000 kPa, x2 = 0.1011 | 730.55 ± 0.46
313.08 K, 20000 kPa, x2 = 0.4963 | 740.21 ± 0.45
313.08 K, 20000 kPa, x2 = 0.7526 | 754.7 ± 0.43
313.09 K, 1000 kPa, x2 = 0.0937 | 715.17 ± 0.21
313.09 K, 2000 kPa, x2 = 0.0937 | 716.07 ± 0.23
313.09 K, 3000 kPa, x2 = 0.0937 | 716.95 ± 0.24
313.09 K, 4000 kPa, x2 = 0.0937 | 717.82 ± 0.25
313.09 K, 5000 kPa, x2 = 0.0937 | 718.68 ± 0.27
313.09 K, 6000 kPa, x2 = 0.0937 | 719.53 ± 0.28
313.09 K, 7000 kPa, x2 = 0.0937 | 720.36 ± 0.29
313.09 K, 8000 kPa, x2 = 0.0937 | 721.18 ± 0.31
313.09 K, 9000 kPa, x2 = 0.0937 | 721.99 ± 0.32
313.09 K, 10000 kPa, x2 = 0.0937 | 722.79 ± 0.33
